Data on seven compounds can be found in patent US11590089B2, “Beta-2 selective adrenergic receptor agonists” (The Board of Trustees of the Leland Stanford Junior …, priority 2017, dated 2023).

Assay [1] concerns the target T1, β2-AR (Homo sapiens, UniProt P07550). Nature of the assay: radioligand binding assay, β2-AR, [3H]CGP12177. Conditions: radioligand [3H]CGP12177; values given as a range are from screening experiments with a low number of repeats; read-out: Ki β2-AR [3H]CGP12177. The protocol: (§1) The binding affinities of exemplary compounds of interest at β1AR and β2AR were evaluated in a binding assay.
Target sequence in this assay (P07550 whole entry): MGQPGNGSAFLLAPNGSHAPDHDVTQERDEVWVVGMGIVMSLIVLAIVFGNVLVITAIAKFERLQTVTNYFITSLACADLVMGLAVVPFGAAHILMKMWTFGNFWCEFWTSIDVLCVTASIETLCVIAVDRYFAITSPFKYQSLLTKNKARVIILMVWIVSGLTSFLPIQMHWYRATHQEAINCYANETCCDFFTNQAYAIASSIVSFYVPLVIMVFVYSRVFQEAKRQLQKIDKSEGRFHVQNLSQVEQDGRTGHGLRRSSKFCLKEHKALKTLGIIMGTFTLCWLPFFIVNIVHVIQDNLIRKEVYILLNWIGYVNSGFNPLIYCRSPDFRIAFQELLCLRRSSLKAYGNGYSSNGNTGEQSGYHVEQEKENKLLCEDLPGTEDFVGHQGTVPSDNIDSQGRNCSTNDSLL

Assay [2] has as its target T2, β1-AR (Homo sapiens, UniProt P08588). In words: β-arrestin-2 recruitment assay at β1-AR. The note with it: for EC50: n.d. = could not be determined because of lack of activity, ranges from screening experiments with a low number of repeats, read-out: β-arrestin-2 recruitment β1-AR EC50; for β-arrestin-2 recruitment β1-AR Emax: relative to norepinephrine. The class given is cell-based.
Target sequence in this assay (P08588 whole entry): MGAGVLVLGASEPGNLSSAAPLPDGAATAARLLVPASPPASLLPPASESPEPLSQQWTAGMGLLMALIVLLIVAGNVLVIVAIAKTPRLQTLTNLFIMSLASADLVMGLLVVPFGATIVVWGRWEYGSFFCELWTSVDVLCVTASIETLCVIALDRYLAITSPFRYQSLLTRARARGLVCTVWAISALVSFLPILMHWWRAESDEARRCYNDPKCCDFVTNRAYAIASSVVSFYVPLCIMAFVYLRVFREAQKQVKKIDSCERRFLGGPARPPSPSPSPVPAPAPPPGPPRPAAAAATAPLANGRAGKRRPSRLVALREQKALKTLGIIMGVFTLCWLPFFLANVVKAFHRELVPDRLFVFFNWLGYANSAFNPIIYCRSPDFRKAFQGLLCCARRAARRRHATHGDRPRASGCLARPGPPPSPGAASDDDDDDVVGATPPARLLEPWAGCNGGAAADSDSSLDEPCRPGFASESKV
Target sequence in this assay (P32121 whole entry partner): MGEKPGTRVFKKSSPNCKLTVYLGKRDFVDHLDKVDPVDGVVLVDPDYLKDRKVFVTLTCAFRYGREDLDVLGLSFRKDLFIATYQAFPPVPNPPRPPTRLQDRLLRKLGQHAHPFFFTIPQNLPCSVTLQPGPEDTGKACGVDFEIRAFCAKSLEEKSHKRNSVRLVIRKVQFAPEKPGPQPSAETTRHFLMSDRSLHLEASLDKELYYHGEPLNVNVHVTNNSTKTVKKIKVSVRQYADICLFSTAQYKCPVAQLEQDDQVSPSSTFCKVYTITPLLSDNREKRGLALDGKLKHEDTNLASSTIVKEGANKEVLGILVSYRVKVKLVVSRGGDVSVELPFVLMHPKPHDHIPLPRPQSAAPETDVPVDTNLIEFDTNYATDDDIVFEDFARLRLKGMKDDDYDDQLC

Assay [3] deals with T3, α2A-AR (Homo sapiens, UniProt P08913).
T3 sequence (P08913 1-465): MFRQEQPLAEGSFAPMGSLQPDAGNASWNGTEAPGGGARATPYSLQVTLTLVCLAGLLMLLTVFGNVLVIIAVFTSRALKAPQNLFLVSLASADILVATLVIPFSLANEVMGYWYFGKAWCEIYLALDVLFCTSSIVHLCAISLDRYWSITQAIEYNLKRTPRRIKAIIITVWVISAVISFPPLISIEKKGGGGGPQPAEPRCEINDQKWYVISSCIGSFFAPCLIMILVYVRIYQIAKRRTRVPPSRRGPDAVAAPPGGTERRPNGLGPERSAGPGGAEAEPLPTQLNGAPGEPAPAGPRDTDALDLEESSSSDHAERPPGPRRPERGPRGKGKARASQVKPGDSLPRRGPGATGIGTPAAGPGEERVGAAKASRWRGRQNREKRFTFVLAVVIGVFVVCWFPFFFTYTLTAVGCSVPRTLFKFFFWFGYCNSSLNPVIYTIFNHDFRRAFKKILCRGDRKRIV
Nature of the assay: radioligand binding assay, α2A-AR, [3H]RX821002. The note with it: radioligand [3H]RX821002; values given as a range are from screening experiments with a low number of repeats.

Assay [4] deals with T1, β2-AR. In words: β-arrestin-2 recruitment assay at β2-AR. The class given is cell-based. Conditions: for EC50: ranges from screening experiments with a low number of repeats; for β-arrestin-2 recruitment β2-AR Emax: relative to norepinephrine.
Target sequence in this assay (P07550 whole entry): as the sequence (P07550 whole entry) above
Target sequence in this assay (P32121 whole entry partner): as the sequence (P32121 whole entry partner) above
Assay [5] concerns the target T2, β1-AR. Nature of the assay: radioligand binding assay, β1-AR, [3H]CGP12177. The note with it: radioligand [3H]CGP12177; values given as a range are from screening experiments with a low number of repeats; read-out: Ki β1-AR [3H]CGP12177. The protocol: as §1
Target sequence in this assay (P08588 whole entry): as the sequence (P08588 whole entry) above
The target in assay [6] is T4, •1A-AR (Homo sapiens, UniProt P35348).
T4 sequence (P35348 1-466): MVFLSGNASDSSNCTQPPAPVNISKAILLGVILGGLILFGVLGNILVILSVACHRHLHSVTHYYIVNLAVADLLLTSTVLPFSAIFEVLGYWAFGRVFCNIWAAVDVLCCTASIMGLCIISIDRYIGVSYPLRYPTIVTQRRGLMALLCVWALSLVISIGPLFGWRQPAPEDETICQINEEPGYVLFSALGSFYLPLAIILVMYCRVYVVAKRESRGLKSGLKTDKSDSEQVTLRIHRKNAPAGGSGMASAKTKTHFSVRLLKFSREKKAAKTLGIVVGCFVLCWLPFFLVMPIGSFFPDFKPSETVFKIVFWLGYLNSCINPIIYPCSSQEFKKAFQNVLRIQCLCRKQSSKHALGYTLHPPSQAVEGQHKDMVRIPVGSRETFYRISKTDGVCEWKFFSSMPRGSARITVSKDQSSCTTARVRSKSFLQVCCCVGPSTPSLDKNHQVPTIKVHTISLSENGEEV
Nature of the assay: radioligand binding assay, α1A-AR, [3H]prazosin.

Setting [7] is: n.d. = could not be determined because of lack of activity, read-out: β-arrestin-2 recruitment β2-AR EC50.
Where [8] appears, read: radioligand [3H]prazosin, values given as a range are from screening experiments with a low number of repeats, read-out: Ki •1A-AR [3H]prazosin.

Structures can show the parent of a compound that is named as a salt. Where two headings read alike, the source gives them in different places. A value given as a limit tells only on which side of the number the result lay.

Consider `Oc1ccc2c(c1O)CC[C@@H](NC(CF)CF)[C@@H]2O` [LM 103, (5R,6R)-6-((1,3-difluoropropan-2-yl)amino)-5,6,7,8-tetrahydronaphthalene-1,2,5-triol], for which the inhibitory constant (Ki) was 0.63 µM in assay [1], 53 µM in assay [3], 10 µM in assay [5] and > 100 µM in assay [6] (setting [8]). Also, the EC50 is 12 µM in assay [2] and 0.64 µM in assay [4] (setting [7]). In addition, the “β-arrestin-2 recruitment β1-AR Emax” value in assay [2] is 18 % norepinephrine. Further, the “β-arrestin-2 recruitment β2-AR Emax” value in assay [4] is recorded as 109 % norepinephrine.

Regarding `Oc1ccc2c(c1O)CC[C@@H](NCC1CC(F)(F)C1)[C@@H]2O` [LM 112, (5R,6R)-6-(((3,3-difluorocyclobutyl)methyl)amino)-5,6,7,8-tetrahydronaphthalene-1,2,5-triol], the Ki was in the range of 0.025 to 0.07 µM in assay [1], 8 to 15 µM in assay [3], 5 to 12 µM in assay [5] and 5 to 8 µM in assay [6]. In addition, the 50% effective concentration (EC50) lay in the range of 6 to 14 µM in assay [2] and 0.01 to 0.02 µM in assay [4] (setting [7]). In addition, in assay [2], the “β-arrestin-2 recruitment β1-AR Emax” value turned out to be 45 % norepinephrine. The “β-arrestin-2 recruitment β2-AR Emax” value in assay [4] was determined as 124 % norepinephrine.

On to `N[C@@H]1CCc2c(ccc(O)c2O)[C@H]1O` [AS446, (5R,6R)-6-amino-5,6,7,8-tetrahydronaphthalene-1,2,5-triol×TFA], for which the Ki in assay [1] amounted to 0.68 µM; in assay [3], 15 µM; in assay [5] it was 16 µM; in assay [6], 18 µM. The half-maximal effective concentration (EC50) in assay [2] is 18 µM; in assay [4] (β-arrestin-2 recruitment β2-AR EC50, n.d. = could not be determined because of lack of activity), 0.1 µM. In addition, the “β-arrestin-2 recruitment β1-AR Emax” value in assay [2] is 56 % norepinephrine. Also, the “β-arrestin-2 recruitment β2-AR Emax” value in assay [4] came out at 107 % norepinephrine.

With `CC(C)(C)CN[C@@H]1CCc2c(ccc(O)c2O)[C@H]1O` [LM 117, (5R,6R)-6-(neopentylamino)-5,6,7,8-tetrahydronaphthalene-1,2,5-triol], the inhibitory constant (Ki) in assay [1] is 0.25 to 0.7 µM; in assay [3] it was 15 to 30 µM; in assay [5] it was ≥ 50 µM; in assay [6] (setting [8]), 10 to 20 µM. In addition, the EC50 in assay [2] lay in the range of 10 to 20 µM; in assay [4] (setting [7]) it was 0.05 to 0.12 µM. In addition, in assay [2], the “β-arrestin-2 recruitment β1-AR Emax” value is on record as 17 % norepinephrine. Further, the “β-arrestin-2 recruitment β2-AR Emax” value in assay [4] is on record as 116 % norepinephrine.

With `CN[C@@H]1CCc2c(ccc(O)c2O)[C@H]1O` [AS443, (5R,6R)-6-(methylamino)-5,6,7,8-tetrahydronaphthalene-1,2,5-triol], the Ki in assay [1] is 0.14 µM; in assay [3] it was 13 µM; in assay [5], 38 µM; in assay [6] (setting [8]) it was 17 µM. Moreover, the EC50 in assay [2] was found to be 38 µM; in assay [4] (setting [7]), 0.026 µM. In assay [2], the “β-arrestin-2 recruitment β1-AR Emax” value came out at 60 % norepinephrine. In addition, the “β-arrestin-2 recruitment β2-AR Emax” value in assay [4] worked out at 112 % norepinephrine.

With `Oc1ccc2c(c1O)CC[C@@H](NC1COC1)[C@@H]2O` [LM 113, (5R,6R)-6-(oxetan-3-ylamino)-5,6,7,8-tetrahydronaphthalene-1,2,5-triol], the inhibition constant Ki in assay [1] was 0.6 to 1.5 µM; in assay [3] it was 25 to 45 µM; in assay [5], ≥ 50 µM; in assay [6] (setting [8]), ≥ 60 µM. The EC50 is > 100 µM in assay [2] and 0.2 to 0.4 µM in assay [4] (setting [7]). Besides, the “β-arrestin-2 recruitment β1-AR Emax” value in assay [2] stood at 20 % norepinephrine. The “β-arrestin-2 recruitment β2-AR Emax” value in assay [4] stood at 115 % norepinephrine.

Take `C[Si](C)(C)CN[C@@H]1CCc2c(ccc(O)c2O)[C@H]1O` [LM 118, (5R,6R)-6-(((trimethylsilyl)methyl)amino)-5,6,7,8-tetrahydronaphthalene-1,2,5-triol]: the Ki is 0.2 to 0.5 µM in assay [1], 8 to 15 µM in assay [3], ≥ 50 µM in assay [5] and 5 to 10 µM in assay [6] (setting [8]). Also, the figures for the EC50 in assay [2] and in assay [4] (setting [7]) were 25 to 70 µM and 0.12 to 0.25 µM, respectively. In addition, the “β-arrestin-2 recruitment β1-AR Emax” value in assay [2] amounted to 40 % norepinephrine. In assay [4], the “β-arrestin-2 recruitment β2-AR Emax” value was found to be 119 % norepinephrine.
